# According to patent US10294202B2, “Pyrrolidinones as herbicides” (FMC Corporation, priority 2013, dated 2019):
# Key:
# barnyardgrass [1] = experiment: Test A pre-/postemergence herbicide test; assay type: in vivo, Echinochloa crus-galli
# Method in brief: (§1)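 Seeds sown in loam soil/sand blend received a preemergence directed soil spray of test chemical in non-phytotoxic solvent with surfactant; postemergence plants (2–10 cm, one- to two-leaf stage) were sprayed with the same formulation. After about 10 days in greenhouse, injury was rated visually versus untreated controls, 0 (no effect) to 100 (complete control).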
# kochia = experiment: Test A pre-/postemergence herbicide test; assay type: in vivo, Kochia scoparia
# Method in brief: as §1
# ragweed = experiment: Test A pre-/postemergence herbicide test; assay type: in vivo, Ambrosia elatior
# Method in brief: as §1
# ryegrass, Italian = experiment: Test A pre-/postemergence herbicide test; assay type: in vivo, Lolium multiflorum
# Method in brief: as §1
# giant foxtail = experiment: Test A pre-/postemergence herbicide test; assay type: in vivo, Setaria faberii
# Method in brief: as §1
# pigweed = experiment: Test A pre-/postemergence herbicide test; assay type: in vivo, Amaranthus retroflexus
# Method in brief: as §1
# wheat = experiment: Test A pre-/postemergence herbicide test; assay type: in vivo, Triticum aestivum; settings: Postemergence
# Method in brief: as §1
# corn = experiment: Test A pre-/postemergence herbicide test; assay type: in vivo, Zea mays; settings: Postemergence
# Method in brief: as §1
# blackgrass = experiment: Test A postemergence herbicide test; assay type: in vivo, Alopecurus myosuroides
# Method in brief: (§2)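 Potted in loam soil/sand blend; postemergence application at 1–2 leaf stage (2–10 cm). Greenhouse ~10 d. Visual injury vs untreated, 0–100 scale; 100 = complete control.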
# galium = experiment: Test A postemergence herbicide test; assay type: in vivo, Galium aparine
# Method in brief: as §2
# rice = experiment: Test B flooded paddy test; assay type: in vivo, Oryza sativa; settings: Flood, scale of 0 to 100 where 0 is no effect and 100 is complete control
# Method in brief: (§3)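 First, plants reach the 2-leaf stage; next, pots are flooded to 3 cm and compound is delivered into the water; finally, after 13 to 15 greenhouse days at constant depth, injury is graded visually from 0 to 100 against controls.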
# sedge, umbrella = experiment: Test B flooded paddy test; assay type: in vivo, Cyperus difformis; settings: Flood, scale of 0 to 100 where 0 is no effect and 100 is complete control
# Method in brief: as §3
# ducksalad = experiment: Test B flooded paddy test; assay type: in vivo, Heteranthera limosa; settings: Flood, scale of 0 to 100 where 0 is no effect and 100 is complete control
# Method in brief: as §3
# barnyardgrass [2] = experiment: Test B flooded paddy test; assay type: in vivo, Echinochloa crus-galli; settings: Flood, scale of 0 to 100 where 0 is no effect and 100 is complete control
# Method in brief: as §3
# [3] = Postemergence, 125 g ai/ha, 0 to 100 scale, 0 is no effect, 100 is complete control
# [4] = Postemergence, 500 g ai/ha, 0 to 100 scale (0 no effect, 100 complete control)
# [5] = Preemergence, 125 g ai/ha, 0 to 100 scale where 0 is no effect and 100 is complete control
# [6] = preemergence, 500 g ai/ha, 0 to 100 scale, 0 is no effect and 100 is complete control
# [7] = Postemergence, 125 g ai/ha, visual rating on 0 to 100 scale (0 no effect, 100 complete control), approx. 10 days
# [8] = 125 g ai/ha, visual rating on 0 to 100 scale (0 no effect, 100 complete control), approx. 10 days
# [9] = 500 g ai/ha, 0 to 100 scale (0 no effect, 100 complete control)
# [10] = 125 g ai/ha, 0 to 100 scale, 0 is no effect, 100 is complete control
# [11] = Preemergence, 500 g ai/ha, visual rating on 0 to 100 scale (0 no effect, 100 complete control)
# [12] = 125 g ai/ha, visual rating, 0 to 100 scale, 0 no effect, 100 complete control, approximately 10 days, preemergence
# [13] = Postemergence, 125 g ai/ha, 0 to 100 scale, 0 no effect, 100 complete control
# [14] = Preemergence, 125 g ai/ha, visual rating on 0 to 100 scale (0 no effect, 100 complete control)
# [15] = preemergence, 500 g ai/ha, 0 to 100 scale
# [16] = 125 g ai/ha, 0 to 100 scale, 0 no effect, 100 complete control
compound,measurement,setting,value
O=C1NCC(c2ccc(Cl)c(Cl)c2)C1C(=O)Nc1ccccc1Cl (racemic) [Compound 273],"Plant response rating, Barnyardgrass",barnyardgrass [1]; [3],10
same,"Plant response rating, Barnyardgrass",barnyardgrass [1]; [4],30
same,"Plant response rating, Barnyardgrass",barnyardgrass [1]; [5],50
same,"Plant response rating, Barnyardgrass",barnyardgrass [1]; [6],80
same,"Plant response rating, Kochia",kochia; [3],0
same,"Plant response rating, Kochia",kochia; [4],0
same,"Plant response rating, Kochia",kochia; [5],0
same,"Plant response rating, Kochia",kochia; [6],70
same,"Plant response rating, Ragweed",ragweed; [7],0
same,"Plant response rating, Ragweed",ragweed; [4],0
same,"Plant response rating, Ragweed",ragweed; [5],0
same,"Plant response rating, Ragweed",ragweed; [6],0
same,"Plant response rating, Ryegrass, Italian","ryegrass, Italian; [7]",0
same,"Plant response rating, Ryegrass, Italian","ryegrass, Italian; [4]",0
same,"Plant response rating, Ryegrass, Italian","ryegrass, Italian; [5]",0
same,"Plant response rating, Ryegrass, Italian","ryegrass, Italian; [6]",0
same,"Plant response rating, Foxtail, Giant",giant foxtail; [3],20
same,"Plant response rating, Foxtail, Giant",giant foxtail; [4],70
same,"Plant response rating, Foxtail, Giant",giant foxtail; [5],90
same,"Plant response rating, Foxtail, Giant",giant foxtail; [6],90
same,"Plant response rating, Pigweed",pigweed; [7],0
same,"Plant response rating, Pigweed",pigweed; [4],0
same,"Plant response rating, Pigweed",pigweed; [5],0
same,"Plant response rating, Pigweed",pigweed; [6],0
same,"Plant response rating, Wheat",wheat; [8],0
same,"Plant response rating, Wheat",wheat; [9],0
same,"Plant response rating, Corn",corn; [10],0
same,"Plant response rating, Corn",corn; [9],0
same,"Plant response rating, Blackgrass",blackgrass; [10],0
same,"Plant response rating, Blackgrass",blackgrass; [9],0
same,"Plant response rating, Galium",galium; [10],0
same,"Plant response rating, Galium",galium; [9],50
same,"Plant response rating, Rice",rice; 500 g ai/ha,0
same,"Plant response rating, Sedge, Umbrella","sedge, umbrella; 500 g ai/ha",0
same,"Plant response rating, Ducksalad",ducksalad; 500 g ai/ha,70
same,"Plant response rating, Barnyardgrass",barnyardgrass [2]; 500 g ai/ha,0
O=C1NCC(c2cccc(-n3ccc(C(F)(F)F)n3)c2)C1C(=O)Nc1cccc(F)c1F (stereo not drawn) [Compound 326],"Plant response rating, Barnyardgrass",barnyardgrass [1]; [7],0
same,"Plant response rating, Barnyardgrass",barnyardgrass [1]; [4],20
same,"Plant response rating, Barnyardgrass",barnyardgrass [1]; [5],0
same,Barnyardgrass plant response rating,barnyardgrass [1]; [11],30
same,"Plant response rating, Kochia",kochia; [7],0
same,"Plant response rating, Kochia",kochia; [4],30
same,"Plant response rating, Kochia",kochia; [5],40
same,Kochia plant response rating,kochia; [11],50
same,"Plant response rating, Ragweed",ragweed; [7],0
same,"Plant response rating, Ragweed",ragweed; [4],0
same,"Plant response rating, Ragweed",ragweed; [5],0
same,Ragweed plant response rating,ragweed; [11],0
same,"Plant response rating, Ryegrass, Italian","ryegrass, Italian; [7]",0
same,"Plant response rating, Ryegrass, Italian","ryegrass, Italian; [4]",0
same,"Plant response rating, Ryegrass, Italian","ryegrass, Italian; [5]",0
same,"Ryegrass, Italian plant response rating","ryegrass, Italian; [11]",40
same,"Plant response rating, Foxtail, Giant",giant foxtail; [7],20
same,"Plant response rating, Foxtail, Giant",giant foxtail; [4],50
same,"Plant response rating, Foxtail, Giant",giant foxtail; [5],50
same,"Foxtail, Giant plant response rating",giant foxtail; [11],60
same,"Plant response rating, Pigweed",pigweed; [7],0
same,"Plant response rating, Pigweed",pigweed; [4],0
same,"Plant response rating, Pigweed",pigweed; [5],0
same,Pigweed plant response rating,pigweed; [11],0
same,"Plant response rating, Wheat",wheat; [8],0
same,"Plant response rating, Wheat",wheat; [9],0
same,"Plant response rating, Corn",corn; [8],0
same,"Plant response rating, Corn",corn; [9],0
same,"Plant response rating, Blackgrass",blackgrass; [8],0
same,"Plant response rating, Blackgrass",blackgrass; [9],0
same,"Plant response rating, Galium",galium; [8],0
same,"Plant response rating, Galium",galium; [9],0
same,"Plant response rating, Rice",rice; 500 g ai/ha,0
same,"Plant response rating, Sedge, Umbrella","sedge, umbrella; 500 g ai/ha",0
same,"Plant response rating, Ducksalad",ducksalad; 500 g ai/ha,0
same,"Plant response rating, Barnyardgrass",barnyardgrass [2]; 500 g ai/ha,0
O=C1NCC(c2ccc(F)cc2)C1C(=O)Nc1ccccc1F (stereo not drawn) [Compound 239],"Plant response rating, Barnyardgrass",barnyardgrass [1]; [12],50
same,"Plant response rating, Barnyardgrass",barnyardgrass [1]; [3],50
same,"Plant response rating, Barnyardgrass",barnyardgrass [1]; [4],90
same,"Plant response rating, Barnyardgrass",barnyardgrass [1]; [6],90
same,"Plant response rating, Kochia",kochia; [12],0
same,"Plant response rating, Kochia",kochia; [3],0
same,"Plant response rating, Kochia",kochia; [4],20
same,"Plant response rating, Kochia",kochia; [6],70
same,"Plant response rating, Ragweed",ragweed; [12],0
same,"Plant response rating, Ragweed",ragweed; [3],0
same,"Plant response rating, Ragweed",ragweed; [4],0
same,"Plant response rating, Ragweed",ragweed; [6],90
same,"Plant response rating, Ryegrass, Italian","ryegrass, Italian; [12]",0
same,"Plant response rating, Ryegrass, Italian","ryegrass, Italian; [3]",0
same,"Plant response rating, Ryegrass, Italian","ryegrass, Italian; [4]",20
same,"Plant response rating, Ryegrass, Italian","ryegrass, Italian; [6]",0
same,"Plant response rating, Foxtail, Giant",giant foxtail; [12],80
same,"Plant response rating, Foxtail, Giant",giant foxtail; [3],50
same,"Plant response rating, Foxtail, Giant",giant foxtail; [4],90
same,"Plant response rating, Foxtail, Giant",giant foxtail; [6],90
same,"Plant response rating, Pigweed",pigweed; [12],0
same,"Plant response rating, Pigweed",pigweed; [3],0
same,"Plant response rating, Pigweed",pigweed; [4],0
same,"Plant response rating, Pigweed",pigweed; [6],0
same,"Plant response rating, Wheat",wheat; [10],0
same,"Plant response rating, Wheat",wheat; [9],20
same,"Plant response rating, Corn",corn; [10],0
same,"Plant response rating, Corn",corn; [9],0
same,"Plant response rating, Blackgrass",blackgrass; [10],20
same,"Plant response rating, Blackgrass",blackgrass; [9],20
same,"Plant response rating, Galium",galium; [10],0
same,"Plant response rating, Galium",galium; [9],30
same,"Plant response rating, Rice",rice; 500 g ai/ha,0
same,"Plant response rating, Sedge, Umbrella","sedge, umbrella; 500 g ai/ha",0
same,"Plant response rating, Ducksalad",ducksalad; 500 g ai/ha,100
same,"Plant response rating, Barnyardgrass",barnyardgrass [2]; 500 g ai/ha,50
O=C1NCC(c2cccc(C(F)(F)F)c2)C1C(=O)Nc1ccccn1 (racemic) [Compound 110],"Plant response rating, Barnyardgrass",barnyardgrass [1]; [13],50
same,"Plant response rating, Barnyardgrass",barnyardgrass [1]; [4],90
same,Barnyardgrass plant response rating,barnyardgrass [1]; [14],70
same,"Plant response rating, Barnyardgrass","barnyardgrass [1]; preemergence, 500 g ai/ha, 0 to 100 scale (0 no effect, 100 complete control)",90
same,"Plant response rating, Kochia",kochia; [13],0
same,"Plant response rating, Kochia",kochia; [4],0
same,Kochia plant response rating,kochia; [14],0
same,"Plant response rating, Kochia",kochia; [15],0
same,"Plant response rating, Ragweed",ragweed; [13],0
same,"Plant response rating, Ragweed",ragweed; [4],0
same,Ragweed plant response rating,ragweed; [14],0
same,"Plant response rating, Ragweed",ragweed; [15],0
same,"Plant response rating, Ryegrass, Italian","ryegrass, Italian; [13]",20
same,"Plant response rating, Ryegrass, Italian","ryegrass, Italian; [4]",40
same,"Ryegrass, Italian plant response rating","ryegrass, Italian; [14]",0
same,"Plant response rating, Ryegrass, Italian","ryegrass, Italian; [15]",0
same,"Plant response rating, Foxtail, Giant",giant foxtail; [13],80
same,"Plant response rating, Foxtail, Giant",giant foxtail; [4],90
same,"Foxtail, Giant plant response rating",giant foxtail; [14],60
same,"Plant response rating, Foxtail, Giant",giant foxtail; [15],90
same,"Plant response rating, Pigweed",pigweed; [13],0
same,"Plant response rating, Pigweed",pigweed; [4],0
same,Pigweed plant response rating,pigweed; [14],0
same,"Plant response rating, Pigweed",pigweed; [15],0
same,"Plant response rating, Wheat",wheat; [16],0
same,"Plant response rating, Wheat",wheat; [9],20
same,"Plant response rating, Corn",corn; [16],0
same,"Plant response rating, Corn",corn; [9],20
same,"Plant response rating, Blackgrass",blackgrass; [16],0
same,"Plant response rating, Blackgrass",blackgrass; [9],70
same,"Plant response rating, Galium",galium; [16],20
same,"Plant response rating, Galium",galium; [9],40
same,"Plant response rating, Rice",rice; 1000 g ai/ha,0
same,"Plant response rating, Sedge, Umbrella","sedge, umbrella; 1000 g ai/ha",50
same,"Plant response rating, Ducksalad",ducksalad; 1000 g ai/ha,95
same,"Plant response rating, Barnyardgrass",barnyardgrass [2]; 1000 g ai/ha,0
